US20210061859A1, “NTCP Inhibitor” (The University of Tokyo, priority 2018, published 2021)
Where a SMILES comes first, the peptide text is derived from it. Bridges are numbered along the chain shown (N, C = ends). [ ]: non-standard residue; d: D form. NMeS = CN[C@@H](CO)C(=O)O; Sar = CNCC(=O)O

Target: T1, human NTCP (Homo sapiens, UniProt Q14973)
T1 construct: made in house; host or cells: wheat germ cell-free protein synthesis system
T1 sequence (Q14973 1-349): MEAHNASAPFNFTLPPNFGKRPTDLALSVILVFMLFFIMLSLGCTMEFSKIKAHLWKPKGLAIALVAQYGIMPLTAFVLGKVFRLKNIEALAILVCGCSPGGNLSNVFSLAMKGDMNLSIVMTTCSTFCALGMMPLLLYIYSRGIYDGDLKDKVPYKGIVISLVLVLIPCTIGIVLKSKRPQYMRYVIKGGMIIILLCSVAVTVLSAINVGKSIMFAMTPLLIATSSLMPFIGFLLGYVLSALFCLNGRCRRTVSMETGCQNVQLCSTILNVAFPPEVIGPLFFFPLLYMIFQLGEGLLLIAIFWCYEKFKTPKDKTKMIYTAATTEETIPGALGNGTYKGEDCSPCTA
Assay: Surface plasmon resonance binding to immobilized recombinant NTCP
Settings: Kd, single-cycle kinetics, 1:1 binding model, NTCP immobilized on NTA-Ni2+
Description: (§1) FIG. 7 is a diagram showing the NTCP association constant of a peptide identified by first RaPID screening. A single-cycle reaction kinetics experiment was conducted using NTCP immobilized on surface (NTA-Ni^2+) involving varying concentrations of a cyclic peptide analyte. In each case, as shown in the drawing, the peptide was tested with 4-fold serial dilutions starting from the highest concentration of 200 or 1000 nM. A dissociation constant (KD) was determined using a 1:1 binding model.
as §1, with “9” for “7”, “focused library” for “first”, “association constant” for “reaction kinetics”
The association constant of each peptide for human NTCP was measured using a Biacore T200 apparatus (GE Healthcare Japan Corp.). The running buffer solution used was HBS-P+ (10 mM HEPES, 150 mM NaCl, and 0.05 vol % surfactant P20, pH 7.4) containing 0.1 vol % DMSO and 1 mM β-dodecyl-maltoside. 100 nM recombinant NTCP was immobilized on a NTA chip treated with Ni^2+ according to the manufacturer's instructions (baseline response: 1000 to 3000 refraction units). Peptides were injected as analytes at a flow rate of 60 μL/min, and association constants were modelled using a 1:1 binding model.

Structure (SMILES) | Kd [µM]
CC[C@H](C)[C@@H]1NC(=O)[C@H](Cc2c[nH]cn2)NC(=O)[C@H]([C@@H](C)CC)NC(=O)[C@H](CO)N(C)C(=O)[C@@H]2CCCN2C(=O)[C@H](Cc2ccc(O)cc2)NC(=O)[C@H](Cc2ccc(O)cc2)NC(=O)[C@H]([C@@H](C)CC)NC(=O)[C@H](Cc2ccc(O)cc2)NC(=O)[C@H](CC(N)=O)NC(=O)[C@@H](Cc2ccc(O)cc2)NC(=O)CSC[C@@H](C(=O)N[C@H](C(N)=O)[C@@H](C)O)NC(=O)[C@H](CC(C)C)NC(=O)[C@H](Cc2ccc(O)cc2)NC(=O)[C@H](Cc2ccccc2)NC1=O [PD1] ({CH2CO}-[dY]NYIYYP[NMeS]IHIFYLCT-NH2; thioether N-15) | 0.149
CC(C)C[C@@H]1NC(=O)[C@H](Cc2ccc(O)cc2)NC(=O)[C@H](C)NC(=O)[C@H](CO)N(C)C(=O)[C@H](Cc2c[nH]cn2)NC(=O)[C@H](Cc2c[nH]c3ccccc23)NC(=O)[C@H]([C@@H](C)O)NC(=O)[C@H](Cc2c[nH]c3ccccc23)NC(=O)[C@H]([C@@H](C)O)NC(=O)[C@H](Cc2ccc(O)cc2)NC(=O)CSC[C@@H](C(=O)N[C@H](C(N)=O)[C@@H](C)O)NC(=O)[C@H](Cc2ccccc2)NC(=O)[C@H](C(C)C)NC(=O)[C@H](Cc2ccc(O)cc2)NC1=O [WL3] ({CH2CO}-YTWTWH[NMeS]AYLYVFCT-NH2; thioether N-14) | 0.057
CC[C@H](C)[C@@H]1NC(=O)[C@H](Cc2ccc(O)cc2)NC(=O)[C@H](Cc2ccc(O)cc2)NC(=O)[C@H](Cc2c[nH]cn2)NC(=O)[C@H](Cc2c[nH]cn2)NC(=O)[C@H]([C@@H](C)O)NC(=O)[C@H](CC(N)=O)NC(=O)[C@H](Cc2c[nH]c3ccccc23)NC(=O)[C@H]([C@@H](C)O)NC(=O)[C@H](Cc2ccc(O)cc2)NC(=O)CSC[C@@H](C(=O)NCC(N)=O)NC(=O)[C@H](CC(N)=O)NC(=O)[C@H](CC(C)C)NC(=O)[C@H](Cc2c[nH]c3ccccc23)NC1=O [L5] ({CH2CO}-YTWNTHHYYIWLNCG-NH2; thioether N-14) | 0.004
CC(C)C[C@@H]1NC(=O)[C@H](Cc2ccccc2)NC(=O)[C@H](C)NC(=O)[C@H](CO)N(C)C(=O)[C@H](CC(N)=O)NC(=O)[C@H](Cc2c[nH]c3ccccc23)NC(=O)[C@H]([C@@H](C)O)NC(=O)[C@H](Cc2c[nH]c3ccccc23)NC(=O)[C@H]([C@@H](C)O)NC(=O)[C@H](Cc2ccc(O)cc2)NC(=O)CSC[C@@H](C(=O)N[C@H](C(N)=O)[C@@H](C)O)NC(=O)[C@H](Cc2ccc(O)cc2)NC(=O)[C@H](C(C)C)NC(=O)[C@H](Cc2ccc(O)cc2)NC1=O [WL6] ({CH2CO}-YTWTWN[NMeS]AFLYVYCT-NH2; thioether N-14) | 0.036
CC[C@H](C)[C@@H]1NC(=O)[C@H](Cc2c[nH]c3ccccc23)NC(=O)[C@H]([C@@H](C)O)NC(=O)[C@@H](Cc2ccc(O)cc2)NC(=O)CSC[C@@H](C(=O)N[C@H](C(N)=O)[C@@H](C)O)NC(=O)[C@@H]2CCCN2C(=O)[C@H](Cc2ccccc2)NC(=O)[C@H](Cc2ccc(O)cc2)NC(=O)[C@H](C(C)C)NC(=O)[C@H](C(C)C)NC(=O)[C@H](Cc2ccc(O)cc2)NC(=O)[C@H](CC(C)C)NC(=O)CN(C)C(=O)CN(C)C(=O)[C@H](Cc2c[nH]c3ccccc23)NC1=O [WD2] ({CH2CO}-[dY]TWIW[Sar][Sar]LYVVYFPCT-NH2; thioether N-15) | 0.014
CC[C@H](C)[C@@H]1NC(=O)[C@H](Cc2ccc(O)cc2)NC(=O)[C@H](CC(C)C)NC(=O)[C@H](C)NC(=O)[C@H]([C@@H](C)O)NC(=O)[C@H](CC(N)=O)NC(=O)[C@H](Cc2c[nH]c3ccccc23)NC(=O)[C@H](CCC(=O)O)NC(=O)[C@@H]2CCCN2C(=O)[C@H](Cc2ccc(O)cc2)NC(=O)[C@H](Cc2c[nH]c3ccccc23)NC(=O)[C@H](Cc2ccc(O)cc2)NC(=O)[C@H](Cc2c[nH]cn2)NC(=O)[C@@H](Cc2ccc(O)cc2)NC(=O)CSC[C@@H](C(=O)NCC(N)=O)NC(=O)[C@@H]2CCCN2C(=O)[C@H](Cc2c[nH]c3ccccc23)NC1=O [D3] ({CH2CO}-[dY]HYWYPEWNTALYIWPCG-NH2; thioether N-17) | 0.05
